Laboratory results as given in patent publication US6984624B2, “Composition containing an iron complexing protein and a precursor of nitrogen monoxide metabolism and/or a chemical donor of nitrogen monoxide and uses thereof” (Isocell S.A., priority 2000, dated 2006).

How the values were obtained:
Format in all cases: cell-based, human
[1] = tested on: Intestinal epithelial cells of the Caco-2 line; experiment: Iron fixation at the cellular level with added chemical donor of NO (Example 2); conditions: SNAP between 0 and 1 μM added to tubes 2 (Lf-^59Fe) and 4 (Lf-^59Fe + ^59Fe) of Table II
Method: (§1) Intestinal epithelial cells of the Caco-2 line derived from a colon cancer were incubated in a proportion of 2×10^6 cells per ml in an RPMI 1640 medium buffered at pH 7.4, in the presence of 25 mmolar of Hepes, containing 15% (v/v) of fetal calf serum, 2 mmol/l of L-glutamine and 1% (v/v) of a solution of streptomycin-penicillin, sold by the company Gibco.
Tubes of intestinal epithelial cell cultures were prepared and cultured under the same conditions as those described above in Example 1.
Iron fixation at the cellular level was then initiated by adding Lf-^59Fe and/or labeled iron.
One of the cell culture tubes received none of the constituents, so as to serve as a control.
The distribution of the constituents, and also the concentrations at which they were used, appear in Table II below:
The culture tubes then received SNAP in amounts ranging between 0 and 1 μM, and the cellular fixation of radiolabeled iron were then measured using a device for measuring the radioactivity.

[2] = tested on: Intestinal epithelial cells of the Caco-2 line; experiment: Iron fixation at the cellular level with added inhibitor of the L-arginine pathway (Example 1, FIG. 2); conditions: 1 mM added to the medium of tubes 1, 2, 4 and 8 of Table I; virtually returned to the degree without L-arginine (tube 2)
Method: as §1
The cells were then incubated for a period of 16 hours in Eppendorf tubes kept stirring for the final 2 hours of the culture period. Throughout the incubation period, the amount of cellular iron was measured by centrifugation pellet of the cells a first time after 30 minutes (t=0.5), then after one hour (t=1), and then every hour (t=2 to t=16), using a device for measuring the radioactivity.

[3] = tested on: Intestinal epithelial cells of the Caco-2 line; experiment: Degree of iron fixation at the cellular level as a function of concentrations (Example 3); conditions: Caco-2 cells, after 72 hours of incubation; tube contents per Table III (mg/ml); Control = 1
Method: as §1
Twelve tubes of epithelial cell cultures were prepared according to the conditions described above in Example 1.
Iron fixation at the cellular level was then initiated by adding Lf-^59Fe and/or labeled iron and/or L-arginine.
One of the cell culture tubes received none of these three constituents, so as to act as a control.
The distribution of the constituents, and also the concentrations at which they were used, appear in Table III below:
The degree of cellular fixation of iron was measured after 72 hours of incubation using a device for measuring the radioactivity.

SMILES: CC(=O)N[C@H](C(=O)O)C(C)(C)SN=O (racemic) [SNAP, S-nitroso-N-acetylpenicillamine]
- Degree of iron fixation in the epithelial cells after addition of SNAP [1]: increase the degree of iron fixation in the epithelial cells

SMILES: COC(=O)[C@@H](N)CCCNC(=N)N[N+](=O)[O-] [L-NAME, N^ω-nitro-L-arginine methyl ester]
- Degree of iron fixation at the cellular level after addition of L-NAME [2]: very large decrease in the degree of iron fixation at the cellular level

SMILES: N=C(N)NCCC[C@H](N)C(=O)O [Cell culture tube 8, L-arginine, reference compound]
- Degree of iron fixation in the cells (cpm ^59Fe) [3]: 1 cpm ^59Fe
